Assays:
[1] = molecular target: T1, rat MCH1 receptor (Rattus norvegicus, UniProt P97639); assay: rMCH FLIPR calcium mobilization functional assay; type: cell-based; conditions: CHOK1-Gqi cells
T1 construct: expressed in transfected cells
Procedure: Pharmacological analyses were conducted using either a HT-PS100 device (Axiom Biotechnologies, San Diego, Calif.), which provides high-resolution dose-response fluorometric measurements of [Ca^++]i mobilization, or using a FLIPR® device (Molecular Devices, Sunnyvale, Calif.).
Materials: Pharmacological analysis was conducted using a FLIPR® device (Molecular Devices, Sunnyvale, Calif.). CHOK1-Gqi cells were stably transfected with the rat MCH1 receptor and maintained under G418 antibiotic pressure. FLIPR® assay buffer consisted of phenol red-free DMEM+2.5 mM probenecid. MCH peptide (Amgen, Inc.) was reconstituted in assay buffer and served as the positive agonist control for all experiments. Test compounds were prepared as 10 mM stocks in 100% DMSO and diluted to a top end working concentration of 10 μM in 96 well black, flat bottom, collagen-I coated plates (Becton Dickinson, Bedford, Mass.).
Methods: CHOK1-Gqi cells stably expressing MCH1R were maintained in Dulbeco's modified Eagle's medium (GIBCO/Life Technologies, Rockville, Md.) supplemented with 2 mM glutamine and 10% dialyzed fetal bovine serum (HyClone, Logan, Utah) at 37° C., 5% CO2. Cells were harvested by 10′ treatment with Versene (GIBCO/Life Technologies) followed by trituration, washing twice with cold (4° C.) hybridoma medium (Serum/Protein free, with L-glutamine, sodium bicarbonate, MOPS buffer) (Sigma-Aldrich Corp, St. Louis, Mo.) and replated onto 96 well black, flat bottom, collagen-I coated plates to a density of 10,000 cells/well. The cells were then loaded with the fluorescent calcium indicator Fura-2 (Molecular Probes, Eugene, Oreg.) at 1.6 μM for 60′ at room temperature. The loaded cells were then washed twice with 90 μl/well of wash buffer (1×HBSS, 20 mM HEPES, 2.5 mM probenecid).
Receptor-stimulated intracellular calcium responses were detected using FLIPR® by monitoring increases in the Fura-2 fluorescence response.
Test compounds were screened for MCH1R activity in the FLIPR® for both agonist and antagonist action. Agonist mode challenges were conducted at a maximum gradient concentration of 1 μM. Antagonist activity was tested by 10 min pre-incubation of cells at a compound concentration of defined to be 300× the EC50 of MCH (typically 1 μM), with subsequent introduction of MCH at a concentration 5-fold of EC50 as determined in preliminary experiments.
Schild experiments were conducted on the FLIPR® for selected compounds by co-administering antagonist compounds together with MCH peptide. Several fixed concentrations of antagonist compounds were prepared in 10-fold increments, and presented to the cells in a gradient of increasing MCH concentration. Values for compound pA2 were calculated by linear regression of MCH EC50s as a function of antagonist concentration.

[2] = molecular target: T2, human MCH receptor (Homo sapiens, UniProt Q99705); assay: hMCH FLIPR calcium mobilization functional assay; type: cell-based
T2 construct: expressed in transfected cells
T2 sequence (Q99705 whole entry): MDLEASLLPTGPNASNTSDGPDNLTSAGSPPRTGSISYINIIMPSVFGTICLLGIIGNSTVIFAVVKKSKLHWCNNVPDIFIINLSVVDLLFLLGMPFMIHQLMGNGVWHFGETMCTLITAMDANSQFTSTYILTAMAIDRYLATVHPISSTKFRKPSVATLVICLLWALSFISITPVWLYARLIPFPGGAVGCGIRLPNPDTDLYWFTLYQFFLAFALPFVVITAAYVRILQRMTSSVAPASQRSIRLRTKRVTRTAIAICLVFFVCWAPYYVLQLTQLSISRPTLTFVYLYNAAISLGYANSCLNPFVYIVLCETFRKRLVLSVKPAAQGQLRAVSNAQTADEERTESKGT

[3] = molecular target: T3, human MCH 1 receptor (hMCH1R) (Homo sapiens, UniProt Q99705); assay: Ligand binding assay (125I native-MCH), hMCH; conditions: hMCH1R expressed in HEK 293, membranes, 0.2 nM 125I native-MCH
T3 construct: expressed in transfected cells; host or cells: HEK 293 (membrane preparation)
T3 sequence (Q99705 whole entry): as above
Procedure: (§1) Human embryonic kidney cells (293 total) expressing either human, rat, or mouse MCH receptor were harvested from 150 mm culture dishes using PBS. Spinning at 1500 rpm for 2 minutes initially pelleted cells. The resulting pellet was then homogenized in 15 mL ice cold sucrose buffer (25 mM HEPES, 0.3 M sucrose, pH 7.4) with a motorized, glass fitted, Teflon® homogenizer. The homogenate was centrifuged at 48,000×g at 4° C. for 10 minutes, resuspended in 15 mL assay buffer (25 mM HEPES, 10 mM MgCl2, 0.2% BSA, 0.1 mg/mL STI, 0.1 mg/mL Pefabloc®, 1 μM Phosphoramidon, pH 7.4) with a Tissue-Tearor® (Biospec Products) and centrifuged again at 48,000×g for 10 minutes. The pellet was homogenized for a third time in 15 mL assay buffer using the Tissue-Tearor® and again centrifuged at 48,000×g for 10 minutes. The resulting pellet was resuspended in assay buffer at a wet weight concentration of 10-20 mg/mL.
(§2) Binding assays were determined as described below using mouse, rat or human MCH 1 receptors (mMCH1R, rMCH1R, and hMCH1R, respectively) expressed in HEK 293; IC50 values were calculated.
(§3) Binding assays were performed in 96-well U-bottom plates. Membranes (100 μg tissue) were incubated at 30° C. for 90 minutes in assay buffer with various peptides in the presence of 0.2 nM 125I native-MCH (Perkin-Elmer Life Sciences, Boston, Mass.) in 100 μL total volume. Non-specific binding was assessed in the presence of 1 μM cold native-MCH. The reaction was terminated by rapid filtration through Unfilter-96 GF/C glass fiber filter plates (FilterMate® 196 Harvester, Packard Instrument Co., Meriden, Conn.) pre-soaked in PBS/0.5% BSA, followed by three washes with 300 μL ice-cold water. Bound radioactivity was determined using a TopCount® microplate scintillation and luminescence counter (Packard Instrument Co., Meriden, Conn.). Nonlinear regression analyses of drug concentration curves were performed using GraphPad Prism® (GraphPad Software, Inc., San Diego, Calif.).

[4] = molecular target: T4, rat MCH 1 receptor (rMCH1R) (Rattus norvegicus, UniProt P97639); assay: Ligand binding assay (125I native-MCH), rMCH; conditions: rMCH1R expressed in HEK 293, membranes, 0.2 nM 125I native-MCH
T4 construct: expressed in transfected cells; host or cells: HEK 293 (membrane preparation)
T4 sequence (P97639 whole entry): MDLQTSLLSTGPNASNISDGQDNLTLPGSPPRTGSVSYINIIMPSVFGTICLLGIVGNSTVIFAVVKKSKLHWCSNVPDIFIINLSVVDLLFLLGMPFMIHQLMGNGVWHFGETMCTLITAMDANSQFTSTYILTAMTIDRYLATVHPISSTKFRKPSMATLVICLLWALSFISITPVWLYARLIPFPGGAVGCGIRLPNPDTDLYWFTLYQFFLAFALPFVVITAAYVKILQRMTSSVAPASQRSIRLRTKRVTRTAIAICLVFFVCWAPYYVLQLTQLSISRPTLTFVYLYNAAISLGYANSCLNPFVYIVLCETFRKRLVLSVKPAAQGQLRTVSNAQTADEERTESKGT
Procedure: as §1, §2, §3

T1 sequence (P97639 whole entry): as above

Structure (SMILES)	Ki ([1]; threshold 100 nM or less)	Ki ([1]; threshold 100 μM or less)	Ki ([2]; threshold 100 nM or less)	Ki ([2]; threshold 100 μM or less)	IC50 ([3]; threshold 100 nM or less)	IC50 ([3]; threshold 100 μM or less)	IC50 ([4]; threshold 100 nM or less)	IC50 ([4]; threshold 100 μM or less)
Cc1ccc(Oc2ccc(C(=O)NCCN3CCCC3)cc2NC(=O)Nc2ccc(Br)cc2)cc1C [Compound 38, 3-[3-(4-bromophenyl)ureido]-4-(3,4-dimethylpherioxy)-N-(2-pyrrolidin-1-yl-ethyl)benzamide]	≤ 0.1 µM	≤ 100 µM	≤ 0.1 µM	≤ 100 µM	≤ 0.1 µM	≤ 100 µM	≤ 0.1 µM	≤ 100 µM
Cc1ccc(Oc2ccc(C(=O)NCCN3CCCC3)cc2NC(=O)Nc2ccccc2Cl)cc1C [Compound 41, 3-[3-(2-chlorophenyl)ureido]-4-(3,4-dimethylphenoxy)-N-(2-pyrrolidin-1-yl-ethyl)benzamide]	≤ 0.1 µM	≤ 100 µM	≤ 0.1 µM	≤ 100 µM	≤ 0.1 µM	≤ 100 µM	≤ 0.1 µM	≤ 100 µM
Cc1ccc(Oc2ccc(C(=O)NCCN3CCCC3)cc2NC(=O)CCc2ccccc2)cc1C [Compound 5, 4-[(3,4-dimethylphenyl)oxy]-3-[(3-phenylpropanoyl)amino]-N-(2-(1-pyrrolidinyl)ethyl)benzamide]		≤ 100 µM		≤ 100 µM		≤ 100 µM		
Cc1cc(Oc2ccc(C(=O)NCCN3CCCC3)cc2NC(=O)Nc2cccc(F)c2)ccc1F [Compound 51, 4-(4-fluoro-3-methylphenoxy)-3-[3-(3-fluorophenyl)ureido]-N-(2-pyrrolidin-1-yl-ethyl)benzamide]		≤ 100 µM	≤ 0.1 µM	≤ 100 µM			≤ 0.1 µM	≤ 100 µM
Cc1ccc(Oc2ccc(CNCCN3CCCC3)cc2NC(=O)Nc2cccc(F)c2)cc1C [Compound 64, 1-{2-(3,4-dimethylphenoxy)-5-[(2-pyrrolidin-1-yl-ethylamino)-methyl]phenyl}-3-(3-fluorophenyl)urea]		≤ 100 µM		≤ 100 µM		≤ 100 µM		≤ 100 µM
Cc1ccc(Oc2ccc(C(=O)NCCN3CCCC3)cc2NC(=O)Nc2c(C)cccc2C)cc1C [Compound 35, 4-(3,4-dimethylphenoxy)-3-[3-(2,6-dimethylphenyl)ureido]-N-(2-pyrrolidin-1-yl-ethyl)benzamide]		≤ 100 µM	≤ 0.1 µM	≤ 100 µM		≤ 100 µM		≤ 100 µM
O=C(Nc1cccc(F)c1)Nc1cc(C(=O)NCCN2CCCC2)ccc1Oc1cccc(F)c1 [Compound 55, 4-(3-fluorophenoxy)-3-[3-(3-fluorophenyl)ureido]-N-(2-pyrrolidin-1-yl-ethyl)benzamide]		≤ 100 µM		≤ 100 µM			≤ 0.1 µM	≤ 100 µM
Cc1ccc(Oc2ccc(C(=O)NCCN3CCCC3)cc2NC(=O)Nc2cccc(F)c2)cc1 [Compound 56, 3-[3-(3-fluorophenyl)ureido]-N-(2-pyrrolidin-1-yl-ethyl)-4-p-tolyloxybenzamide]		≤ 100 µM	≤ 0.1 µM	≤ 100 µM			≤ 0.1 µM	≤ 100 µM
Cc1ccc(Oc2ccc(C(=O)NCCN3CCCC3)cc2NC(=O)Nc2cccc3ccccc23)cc1C [Compound 36, 4-(3,4-dimethylphenoxy)-3-(3-naphthalen-1-yl-ureido)-N-(2-pyrrolidin-1-yl-ethyl)benzamide]		≤ 100 µM		≤ 100 µM	≤ 0.1 µM	≤ 100 µM		≤ 100 µM
Cc1ccc(Oc2ccc(C(=O)NCCN3CCCC3)cc2NC(=O)Nc2ccc(C(C)C)cc2)cc1C [Compound 34, 4-(3,4-dimethylphenoxy)-3-[3-(4-isopropylphenyl)ureido]-N-(2-pyrrolidin-1-yl-ethyl)benzamide]		≤ 100 µM	≤ 0.1 µM	≤ 100 µM	≤ 0.1 µM	≤ 100 µM		≤ 100 µM
O=C(Nc1cccc(F)c1)Nc1cc(C(=O)NCCN2CCCC2)ccc1Oc1ccc(F)cc1 [Compound 54, 4-(4-fluorophenoxy)-3-[3-(3-fluorophenyl)ureido]-N-(2-pyrrolidin-1-yl-ethyl)benzamide]		≤ 100 µM		≤ 100 µM			≤ 0.1 µM	≤ 100 µM
O=C(Nc1cccc(F)c1)Nc1cc(C(=O)NCCN2CCCC2)ccc1Oc1ccc(F)c(F)c1 [Compound 53, 4-(3,4-difluorophenoxy)-3-[3-(3-fluorophenyl)ureido]-N-(2-pyrrolidin-1-yl-ethyl)benzamide]		≤ 100 µM		≤ 100 µM			≤ 0.1 µM	≤ 100 µM
Cc1ccc(Oc2ccc(C(=O)NCCN3CCCC3)cc2NC(=O)Nc2cc(Cl)cc(Cl)c2)cc1C [Compound 59, 3-[3-(3,5-dichlorophenyl)ureido]-4-(3,4-dimethylphenoxy)-N-(2-pyrrolidin-1-yl-ethyl)benzamide]		≤ 100 µM		≤ 100 µM	≤ 0.1 µM	≤ 100 µM	≤ 0.1 µM	≤ 100 µM
Cc1ccc(Oc2ccc(C(=O)NCCN3CCCC3)cc2NC(=O)Nc2c(C(C)C)cccc2C(C)C)cc1C [Compound 37, 3-[3-(2,6-diisopropylphenyl)ureido]-4-(3,4-dimethylphenoxy)-N-(2-pyrrolidin-1-yl-ethyl)benzamide]		≤ 100 µM		≤ 100 µM	≤ 0.1 µM	≤ 100 µM		≤ 100 µM
COc1cccc(NC(=O)Nc2cc(C(=O)NCCN3CCCC3)ccc2Oc2ccc(C)c(C)c2)c1 [Compound 40, 4-(3,4-dimethylphenoxy)-3-[3-(3-methoxyphenyl)ureido]-N-(2-pyrrolidin-1-yl-ethyl)benzamide]	≤ 0.1 µM	≤ 100 µM	≤ 0.1 µM	≤ 100 µM	≤ 0.1 µM	≤ 100 µM	≤ 0.1 µM	≤ 100 µM
Cc1ccc(Oc2ccc(C(=O)NCCN3CCCC3)cc2NC(=O)NCc2ccccc2)cc1C [Compound 6, 4-[(3,4-dimethylphenyl)oxy]-3-({[(phenylmethyl)amino]carbonyl}amino)-N-(2-(1-pyrrolidinyl)ethyl)benzamide]	≤ 0.1 µM	≤ 100 µM	≤ 0.1 µM	≤ 100 µM	≤ 0.1 µM	≤ 100 µM		

Reference: patent US20050256161A1, “Melanin concentrating hormone receptor antagonists” (priority 2003, published 2005)
